US20120231972A1, “Probe Compound for Detecting and Isolating Enzymes and Means and Methods Using the Same” (priority 2009, published 2012)
Values after ≈ are worked out from the molar mass of the structure shown.

Experiment: physchem
Format: physicochemical
Conditions: water

solubility: ~240 mM (≈ 222 mg/mL)
SMILES: CC[N+]1=C(/C=C/C=C2/N(CCCCCC(=O)N[C@H](Cc3c[nH]cn3)C(=O)O)c3ccc(S(=O)(=O)[O-])cc3C2(C)C)C(C)(C)c2cc(S(=O)(=O)NCCCC(=O)OCCN(C)C)ccc21 [compound (E), Cy3-His-4-amino-3-butyric acid (N,N-dimethylamino) ethylester]
